Experimental data reported in patent US5112841A, “Imidazole derivatives and antiepileptics comprising said imidazole derivatives as effective ingredients” (Mitsui Toatsu Chemicals, Incorporated, priority 1990, dated 1992).
Where a name gives a salt, the structure may show the parent alone.

Legend:
in vivo [1] = assay: in vivo; design: species or system ddy Male mice; conditions: mouse, po
Protocol: ddy Male mice (body weight: 25-30 g) were used in groups each of which consisted of 5-10 mice. A test compound was orally administered. One hour later, each mouse was caused to hold with the fore paws thereof a stainless steel wire whose diameter was 1.5 mm. […] Traction activity (%) was calculated in accordance with the following calculation formula, and ED50 (mg/Kg) was determined therefrom. [formula]

in vivo [2] = assay: in vivo; design: species or system ddy Male mice; conditions: mouse, po; remark: listed apart in the source
Protocol: ddy Male mice (body weight: 25-30 g) were used in groups each of which consisted of 5-10 mice. A test compound was orally administered One hour later, each mouse was placed on a rod which rotated a full turn per second. Mice which fell down within 120 seconds were counted. Rotorod action (%) was calculated in accordance with the following calculation formula, and ED50 (mg/Kg) was determined therefrom. [formula]

mice = assay: Maximal Electroshock Seizure Test (tonic-extensor convulsions of hind legs); type: in vivo, ddy Male mice; conditions: Mus musculus; antiepileptic action; oral, electric shock 1 hour after dosing (200 Hz, 50 mA, 0.2 second)
Protocol: ddy Male mice (body weight: 25-30 g) were used in groups each of which consisted of 5-10 mice. A test compound was orally administered. One hour later, an electric shock (200 Hz, 50 mA, 0.2 second) was applied through corneal electrodes. […] Antiepileptic action (%) was calculated in accordance with the following calculation formula, and ED50 (mg/Kg) was determined therefrom. [formula]

[3] = Acute Toxicity (death within 5 days); conditions: mouse, in vivo, oral, death in 5 days (LD50 in the method text), read-out: ED50
Protocol: ddy Male mice (body weight: 25-30 g) were used in groups each of which consisted of 5-6 mice. A test compound was orally administered. Mice which died in 5 days were counted. Death rate (%) wa calculated in accordance with the following calculation formula, and LD50 (mg/Kg) was determined therefrom. [formula]

SMILES | TD50 at 1 h (in vivo [1]) [mg/kg] | TD50 at 1 h (in vivo [2]) [mg/kg] | ED50 (mice) [mg/kg] | LD50 at 120 h [3] [mg/kg]
Cl.c1ccc(-c2cc(-n3cc(Cn4ccnc4)c4ccccc43)on2)cc1 [Example 1, 1-(3-phenyl-5-isoxazolyl)-3-(1-imidazolyl)methylindole hydrochloride] | > 750 | 500 | 9 | > 1000
Cl.Fc1ccc(-c2cc(-n3cc(Cn4ccnc4)c4ccccc43)on2)cc1 [Example 3, 1-{3-(4-Fluorophenyl)-5-isoxazolyl)-3-(1-imidazolyl)methylindole hydrochloride] | – | – | 20 to 40 | –
Cl.Clc1ccc(-c2cc(-n3cc(Cn4ccnc4)c4ccccc43)on2)cc1 [Example 4, 1-{3-(4-Chlorophenyl)-5-isoxazolyl}-3-(1-imidazolyl)methylindole hydrochloride] | – | – | 20 to 40 | –
Cc1ccc(-c2cc(-n3cc(Cn4ccnc4)c4ccccc43)on2)cc1 [Example 5, 1-(3-(p-Toluyl)-5-isoxazolyl}-3-(l-imidazolyl)-methylindole hydrochloride] | – | – | 16 | –
COc1ccc(-c2cc(-n3cc(Cn4ccnc4)c4ccccc43)on2)cc1.Cl [Example 6, 1-{3-(4-Methoxyphenyl)-5-isoxazolyl}-3-(1-imidazolyl)methylindol hydrochloride] | > 750 | > 750 | 7 | > 1000
Cl.N#Cc1ccc(-c2cc(-n3cc(Cn4ccnc4)c4ccccc43)on2)cc1 [Example 7, 1-(3-(4-Cyanophenyl)-5-isoxazolyl)-3-(1-imidazolyl)methylindole hydrochloride] | – | – | 20 to 40 | –
Cl.FC(F)(F)c1ccc(-c2cc(-n3cc(Cn4ccnc4)c4ccccc43)on2)cc1 [Example 8, 1-{3-(4-Trifluoromethylphenyl)-5-isoxazolyl}-3-(1-imidazolyl)methylindole hydrochloride] | – | – | 20 to 40 | –
Cl.Clc1ccccc1-c1cc(-n2cc(Cn3ccnc3)c3ccccc32)on1 [Example 9, 1-{3-(2-Chlorophenyl)-5-isoxazolyl}-3-(1-imidazolyl)methylindole hydrochloride] | – | – | 20 to 40 | –
Cl.Clc1cccc(-c2cc(-n3cc(Cn4ccnc4)c4ccccc43)on2)c1 [Example 10, 1-{3-(3-Chlorophenyl)-5-isoxazolyl)-3-(1-imidazolyl)methylindole hydrochloride] | – | – | 20 to 40 | –
COc1cccc(-c2cc(-n3cc(Cn4ccnc4)c4ccccc43)on2)c1.Cl [Example 11, 1-(3-(3-Methoxyphenyl)-5-isoxazolyl}-3-(1-imidazolyl)methylindole hydrochloride] | > 750 | > 750 | 14 | > 1000
O=C1NC(=O)C(c2ccccc2)(c2ccccc2)N1 [Phenytoin.Na, reference compound] | 350 | 186 | 7 | 300 to 500
